Numbers after ± are expanded uncertainties.
Conditions: 298.15 K, 101.33 kPa, Liquid; for viscosity: Capillary tube (Ostwald / Ubbelohde) method; for speed of sound: Sing-around technique in a fixed-path interferometer; for mass density: Vibrating tube method

SMILES | viscosity | speed of sound | mass density
CCCCOCCO [2-butoxyethan-1-ol] | 2.885 ± 0.063 mPa·s | 1306 ± 1.6 m/s | 896.312 ± 0.24 kg/m3
CCCCCCCCCCO [decan-1-ol] | 11.81 ± 0.28 mPa·s | 1379.4 ± 1.6 m/s | 826.489 ± 0.24 kg/m3
CCCCCCO [hexan-1-ol] | 4.623 ± 0.1 mPa·s | 1303.5 ± 1.6 m/s | 815.652 ± 0.24 kg/m3
CCCCCCCCO [octan-1-ol] | 7.68 ± 0.17 mPa·s | 1347.3 ± 1.6 m/s | 821.877 ± 0.24 kg/m3
